Some test systems named below: A549 NSCLC; BT-549 breast; HL-60(TB) leukemia; HS 578T breast; LOX IMVI melanoma; MCF7 breast; OVCAR-8 ovarian; SR leukemia.
What all share (test): DTP human tumour cell line panel, 48 h

The structures appear in SMILES notation. “And” between values parts separate entries of the source, which are not always exact repeats. Identical values can stand only once.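 Cells were grown in 96-well plates and exposed to each compound for 48 hours at five concentrations; endpoints were interpolated linearly between bracketing concentrations, or set to the highest concentration if not reached. At the GI50, growth is halved. The concentration for full growth arrest is given as TGI.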 Numbered stars: 1 amine (or outer) side, 2 acyl side, 3 side chain; on linkers, the order of the positions; unused ones are H or OH. Bridge positions count the residues as written; N and C are the ends. Square brackets hold non-standard residues; d marks the D form. Peptide text beside a SMILES is read from it. I, II: the chains in the order shown. Actinocin(1to9) = Cc1c2oc3c(C)ccc(C(=O)[*:2])c3nc-2c(C(=O)[*:1])c(N)c1=O; NMeY = CN[CH](Cc1ccc(O)cc1)C(=O)O; Sar = CNCC(=O)O

Usually GI50 stands for the concentration that inhibits growth by half. As usually defined, the TGI is the concentration giving total growth inhibition. Low readings indicate more potent growth arrest, high ones less potent growth arrest. For the compound `O=C(Nc1cccc(C(F)(F)F)c1)Oc1ccc(Cl)c2cccnc12`, the GI50 was 2.43 µM with A549 NSCLC; 0.524 µM in the assay on BT-549 breast; 0.776 µM with HL-60(TB) leukemia; 3.56 µM with HS 578T breast; 0.764 µM with LOX IMVI melanoma; 1.46 µM in the assay with MCF7 breast. The results for the GI50 in the assay with OVCAR-8 ovarian and in the assay with SR leukemia were 0.906 µM and 0.447 µM, respectively. Further, the TGI in the assay on A549 NSCLC was 9.03 µM; in the assay with BT-549 breast, 3.69 µM; in the assay on HS 578T breast, greater than 24 µM; in the assay with LOX IMVI melanoma, 4.02 µM; in the assay with MCF7 breast, 6.77 µM; with OVCAR-8 ovarian, 6.16 µM.
Turning to `C[C@@H]1CC[C@@]2(NC1)O[C@H]1C[C@H]3[C@@H]4CC[C@H]5C[C@@H](O)CC[C@]5(C)[C@H]4CC[C@]3(C)[C@H]1[C@@H]2C`, the TGI in the assay on A549 NSCLC was greater than 100 µM; in the assay with BT-549 breast it was greater than 100 µM; with HL-60(TB) leukemia, 53.8 µM; in the assay on HS 578T breast, greater than 100 µM; in the assay on LOX IMVI melanoma it was greater than 100 µM; in the assay with MCF7 breast it was greater than 100 µM. Also, the results for the total growth inhibition concentration (TGI) with OVCAR-8 ovarian and in the assay on SR leukemia were 54.7 µM and greater than 100 µM, respectively.
Take `Cc1cc(O)c(-c2ccc([C@@H](C)CN(C)C)cc2)c2c1[nH]c(=O)c1sccc12`: the GI50 is 0.647 µM in the assay on A549 NSCLC; 0.574 µM in the assay with BT-549 breast; 0.453 µM with HL-60(TB) leukemia; 0.207 µM in the assay on HS 578T breast; 0.785 µM in the assay with LOX IMVI melanoma; 0.103 µM in the assay on MCF7 breast. Besides, the GI50 in the assay on OVCAR-8 ovarian was 0.983 µM; with SR leukemia it was 0.363 µM. Also, the TGI is 14.6 µM in the assay with A549 NSCLC; 3.44 µM in the assay with BT-549 breast; 7.38 µM in the assay with HL-60(TB) leukemia; 20.8 µM with HS 578T breast; 27.5 µM with LOX IMVI melanoma; 3.14 µM with MCF7 breast. In addition, the total growth inhibition concentration (TGI) is 34.9 µM with OVCAR-8 ovarian and 26.6 µM in the assay with SR leukemia.
In the case of `CS(=O)(=O)N(c1cc(-c2ccc3ncnc(Nc4ccc(F)c(Cl)c4)c3c2)cnc1Cl)S(C)(=O)=O`, the GI50 was 1.98 µM in the assay with A549 NSCLC; 0.638 µM in the assay on BT-549 breast; 0.49 µM in the assay with HL-60(TB) leukemia; 0.218 µM in the assay with HS 578T breast; 0.879 µM with LOX IMVI melanoma; 0.246 µM with MCF7 breast. For the same compound, the GI50 in the assay with OVCAR-8 ovarian was 2.17 µM; with SR leukemia, 4.35 µM. The TGI came to 11.2 µM in the assay with A549 NSCLC; 5.06 µM in the assay on BT-549 breast; 5.35 µM in the assay with HL-60(TB) leukemia; 2.61 µM in the assay with HS 578T breast; 4.73 µM with LOX IMVI melanoma; 3.58 µM with MCF7 breast. In addition, the TGI with OVCAR-8 ovarian was 15.5 µM; in the assay with SR leukemia it was greater than 100 µM.
Consider `Nc1cccc2c1C(=O)c1cccc(NC(=O)c3ccccc3)c1C2=O`, for which the GI50 in the assay with A549 NSCLC was 0.677 µM; in the assay on BT-549 breast, 0.674 µM; in the assay with HL-60(TB) leukemia, 0.292 µM; in the assay on HS 578T breast, 0.412 µM; with LOX IMVI melanoma, 0.565 µM; with MCF7 breast, 0.258 µM. Also, the GI50 is 0.784 µM in the assay with OVCAR-8 ovarian and 0.165 µM in the assay with SR leukemia. Further, the total growth inhibition concentration (TGI) in the assay on A549 NSCLC was 4.66 µM; in the assay on BT-549 breast it was 33.9 µM; in the assay on HL-60(TB) leukemia, greater than 100 µM; with HS 578T breast, greater than 53.1 µM; in the assay on LOX IMVI melanoma, greater than 100 µM; in the assay with MCF7 breast it was 21.3 µM. Further, the TGI in the assay with OVCAR-8 ovarian was greater than 38.8 µM; in the assay with SR leukemia, greater than 100 µM.
With `CNC(=O)c1ccccc1Nc1nc(Nc2ccc3c(c2OC)CCC[C@H](N2CCN(CCO)CC2)C3)ncc1Cl`, the GI50 was 1.45 µM and 1.44 µM with A549 NSCLC; 3.84 µM and 3.43 µM with BT-549 breast; 0.403 µM and 0.305 µM in the assay on HL-60(TB) leukemia; 2.13 µM and 2.4 µM in the assay with HS 578T breast; 1.31 µM and 1.09 µM with LOX IMVI melanoma; 0.37 µM and 0.374 µM with MCF7 breast. For the same compound, the GI50 with OVCAR-8 ovarian is 4.73 µM and 3.25 µM; in the assay on SR leukemia, 0.0449 µM and 0.128 µM. The TGI in the assay with A549 NSCLC is 10.2 µM and > 10 µM; with BT-549 breast, 16 µM and > 10 µM; with HL-60(TB) leukemia, 2.04 µM and 2.38 µM; in the assay with HS 578T breast it was 16.2 µM and > 10 µM; in the assay on LOX IMVI melanoma it was 2.77 µM and 2.48 µM; in the assay with MCF7 breast it was 11.2 µM and > 10 µM. In addition, the TGI with OVCAR-8 ovarian is 19.9 µM and > 10 µM; in the assay on SR leukemia, 1.96 µM and 2.32 µM.
Regarding `CN(N)c1nc(N)c(C#N)c(C#N)c1C#N`, the TGI in the assay with A549 NSCLC, in the assay on BT-549 breast, with HL-60(TB) leukemia, with HS 578T breast, in the assay on LOX IMVI melanoma and in the assay with MCF7 breast was greater than 10 µM in each case. In addition, the TGI with OVCAR-8 ovarian and with SR leukemia was greater than 10 µM throughout.
As for `COc1c(N2CCN(CN3C(=O)C(=Nc4ccc(S(=O)(=O)Nc5ncccn5)cc4)c4cc(Cl)ccc43)C(C)C2)c(F)cc2c(=O)c(C(=O)O)cn(C3CC3)c12` (stereo not given), the GI50 in the assay with A549 NSCLC is 18.5 µM; in the assay on BT-549 breast it was 20.4 µM; in the assay on HL-60(TB) leukemia, 16.6 µM; in the assay on HS 578T breast, 11.9 µM; with LOX IMVI melanoma it was 12.8 µM; in the assay on MCF7 breast it was 11.9 µM. For the same compound, the GI50 with OVCAR-8 ovarian is 13.9 µM; in the assay on SR leukemia, 12.4 µM. For the same compound, the concentration for total growth inhibition (TGI) in the assay with A549 NSCLC was greater than 50 µM; in the assay on BT-549 breast it was greater than 50 µM; with HL-60(TB) leukemia, greater than 50 µM; with HS 578T breast, 42.8 µM; with LOX IMVI melanoma, greater than 50 µM; with MCF7 breast it was 44.4 µM. Further, the TGI in the assay on OVCAR-8 ovarian and with SR leukemia was greater than 50 µM throughout.
For `COc1cc(CNc2oc(-c3ccccc3)c(-c3ccccc3)c2C#N)cc(CN2CCN(C)CC2)c1O`, the GI50 is 1.97 µM in the assay with A549 NSCLC; 1.71 µM with BT-549 breast; 1.79 µM with HL-60(TB) leukemia; 2.26 µM with HS 578T breast; 1.67 µM in the assay with LOX IMVI melanoma; 1.46 µM in the assay with MCF7 breast. Moreover, the GI50 with OVCAR-8 ovarian was 2.56 µM; in the assay with SR leukemia, 1.6 µM. The TGI was found to be 4.16 µM in the assay with A549 NSCLC; 3.42 µM in the assay on BT-549 breast; 4.19 µM with HL-60(TB) leukemia; 6.61 µM in the assay on HS 578T breast; 3.18 µM in the assay on LOX IMVI melanoma; 3.07 µM with MCF7 breast. Moreover, the figures for the TGI in the assay with OVCAR-8 ovarian and in the assay with SR leukemia were 10.1 µM and 4.46 µM, respectively.
Turning to `CC[C@H](C)[C@H](NC(=O)c1cccn1C)C(=O)N(C)[C@H](C[C@@H](OC(C)=O)c1nc(C(=O)N[C@@H](Cc2ccccc2)C[C@H](C)C(=O)OC)cs1)C(C)C`, the GI50 with A549 NSCLC is 0.661 µM; in the assay with BT-549 breast, 0.155 µM; with HL-60(TB) leukemia, 0.076 µM; with HS 578T breast it was 0.226 µM; in the assay on LOX IMVI melanoma, 0.382 µM; with MCF7 breast, 0.0807 µM. Further, the GI50 is 0.354 µM with OVCAR-8 ovarian and 0.0546 µM in the assay with SR leukemia. The TGI was greater than 33.3 µM in the assay with A549 NSCLC; 2.48 µM in the assay on BT-549 breast; 0.208 µM in the assay on HL-60(TB) leukemia; greater than 31.2 µM with HS 578T breast; greater than 33.3 µM in the assay on LOX IMVI melanoma; greater than 33.3 µM with MCF7 breast. Further, the TGI with OVCAR-8 ovarian and in the assay with SR leukemia was greater than 33.3 µM throughout.
`COc1cc(NCCCCCN=C(N)NC(N)=NC(C)C)c2ncccc2c1`: the GI50 in the assay on A549 NSCLC is 11.6 µM; with BT-549 breast, 2.03 µM; in the assay with HL-60(TB) leukemia it was 0.575 µM; with HS 578T breast it was 2.45 µM; in the assay with LOX IMVI melanoma, 0.495 µM; in the assay with MCF7 breast, 0.0313 µM. The GI50 was 3.08 µM in the assay with OVCAR-8 ovarian and 2.08 µM in the assay with SR leukemia. Further, the TGI is 26.3 µM in the assay on A549 NSCLC; 5.61 µM in the assay on BT-549 breast; 3.46 µM in the assay with HL-60(TB) leukemia; 12.7 µM in the assay with HS 578T breast; 2.79 µM in the assay on LOX IMVI melanoma; 0.16 µM in the assay on MCF7 breast. The TGI in the assay on OVCAR-8 ovarian is 17.2 µM; in the assay with SR leukemia it was 15.8 µM.
For `CCN(Cc1c(F)cccc1Cl)c1ccc(CO)c(Cl)c1`, the GI50 with A549 NSCLC is 0.573 µM; with BT-549 breast, 16.5 µM; in the assay on HL-60(TB) leukemia it was 13 µM; in the assay on HS 578T breast, 18.2 µM; with LOX IMVI melanoma it was 18 µM; with MCF7 breast it was less than 0.02 µM. Also, the GI50 is 7.65 µM in the assay on OVCAR-8 ovarian and 16.5 µM with SR leukemia. For the same compound, the TGI in the assay on A549 NSCLC was 16.6 µM; with BT-549 breast it was 31.2 µM; in the assay with HL-60(TB) leukemia, 37.3 µM; in the assay on HS 578T breast, 47 µM; with LOX IMVI melanoma, 33.5 µM; in the assay with MCF7 breast, 14.4 µM. The TGI with OVCAR-8 ovarian came to 23.9 µM; in the assay on SR leukemia, 42.7 µM.
Regarding `COc1ccc(CC2C(=O)OC(C)C(NC(=O)c3c4nc5c(C(=O)NC6C(=O)NC(C(C)C)C(=O)N7CCCC7C(=O)N(C)CC(=O)N(C)C(Cc7ccc(OC)cc7)C(=O)OC6C)ccc(C)c5oc-4c(C)c(=O)c3N)C(=O)NC(C(C)C)C(=O)N3CCCC3C(=O)N(C)CC(=O)N2C)cc1` (stereo not given) (I: TVP[Sar][NMeY](Me) / II: TVP[Sar][NMeY](Me); ester I:1-I:C, II:1-II:C; linker I:N-II:N via Actinocin(1to9); configuration not given here), the TGI is 0.29 µM and > 1 µM in the assay with A549 NSCLC; 0.246 µM in the assay with BT-549 breast; 0.0515 µM in the assay on HL-60(TB) leukemia; < 0.01 µM and 0.0411 µM with HS 578T breast; 1.29 µM and > 1 µM in the assay with MCF7 breast; greater than 0.374 µM in the assay on SR leukemia. In addition, the GI50 was 0.00154 µM with HL-60(TB) leukemia; < 0.01 µM and 0.00387 µM in the assay on HS 578T breast; < 0.01 µM and 0.00423 µM in the assay with LOX IMVI melanoma; < 0.01 µM and 0.003 µM in the assay with MCF7 breast; 0.000646 µM with SR leukemia.

(Values after PubChem BioAssay (NCI).)
